The series is described as follows: gradient 5% acetonitrile 3 min, to 50% in 2 min, to 85% in 15 min, held 3 min, 100 µL/min. As to conditions: column: Zorbax Extend-C18 2.1 x 50 mm; eluents: water / acetonitrile, 0.1% formic acid. An outline of the steps:
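Over 3 months, pure standards in mixtures of ~100 molecules were run by HPLC coupled to a quadrupole time-of-flight mass spectrometer in positive and negative ionization mode. The column was a Zorbax Extend-C18 (2.1 × 50 mm, 1.8 μm) at 100 μL/min, eluted with water and acetonitrile each holding 0.1% formic acid, with 40 μL dead and 900 μL dwell volumes. Retention time was determined from adduct peaks chosen by software and checked manually.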
As for `Cn1nc(C(=O)N2CCCC(C(=O)Nc3ccccc3)C2)c2c1CCN(C(=O)CC1CCCC1)C2` (stereo not given), the RP-LC retention time is 800 s.
On to `CCOc1ccc2nc(NC(=O)CCc3csc(NC(=O)c4ccco4)n3)sc2c1`, for which the RP-LC retention time was determined as 844 s.
The same measure for `Cc1nc(-c2noc(-c3ccncc3)n2)cn1CC(=O)NC1CCCCC1`: 896 s.
Under `Cc1cc(-c2c(C)sc(C)c2S(=O)(=O)Nc2ccc(F)c(Cl)c2)n[nH]1` stands 1120 s.
Under `CCN(C(=O)Cc1c(C(=O)O)c(C)cn1CC)c1cc(C)ccc1C` stands 892 s; under `Cc1[nH]c(C(=O)Nc2cccc(F)c2)c(C)c1S(=O)(=O)N1CCCC1`, 880 s.
`Cc1ccc(NC(=O)N(C)CCc2noc(COc3ccccc3)n2)cc1C` registered an RP-LC retention time of 947 s.
The same measure for `CCCN1C(=O)CCc2cc(NC(=O)c3cc4ccccc4[nH]3)ccc21`: 882 s; for `CC1CCc2nc(NC(=O)CCS(=O)(=O)Cc3ccccc3)sc2C1` (stereo not given): 853 s; for `Cn1c(=O)n(C)c2cc(N3CCCCC3)c(NC(=O)NCc3ccc(F)cc3)cc21`: 659 s.
Under `CNC(=O)c1noc([C@@H]2CC(F)(F)CN2C(=O)CCC2CCCC2)n1` stands 848 s; under `O=C(NC1CC1)c1ccc(OCC2CCCN(C(=O)c3ccsc3)C2)cc1` (stereo not given), 737 s.
The molecule `CC1=C(c2ccccc2)S(=O)(=O)N=C1N1CCC(NC(=O)C2CCOC2)CC1` (stereo not given) yielded an RP-LC retention time of 650 s.
The same measure for `CCC(=O)Nc1ccc(C2(C(=O)NCC3CC3)CCCCC2)cc1`: 825 s; for `CCc1ccc(NC(=O)c2cc(CC)n3nccc3n2)cc1`: 1140 s.
The same measure for `COc1ccc(Cl)cc1N1CC(c2nc(-c3cc(OC)c(OC)c(OC)c3)no2)CC1=O` (stereo not given): 905 s; for `Cc1ccc(-c2noc(CN3N=NC4C(=O)N(c5cccc(F)c5)C(=O)C43)n2)cc1C` (stereo not given): 897 s.
Under `Cn1nc(-c2nnc(-c3ccccc3)o2)c2c1CCN(S(=O)(=O)c1cccc3nsnc13)C2` stands 905 s; under `Cc1ccc(NC(=O)c2cn3c(n2)CCCC3)c(F)c1`, 720 s; under `CCc1ccc(C(=O)N2CCN(c3cc(-c4ccc(C)cc4)ncn3)CC2)cc1`, 731 s.
Molecule `COc1ccc(C2C(C(=O)NCc3ccccc3OC)c3ccccc3C(=O)N2C)cc1` (stereo not given) had an RP-LC retention time of 864 s.
Under `CCC(C)C(=O)N1CCCN(C2=NS(=O)(=O)C(c3ccc(C(C)C)cc3)=C2C)CC1` (stereo not given) stands 974 s; under `O=C1C(NS(=O)(=O)Cc2cc(F)cc(F)c2)CCN1c1ccccc1` (stereo not given), 914 s; under `O=C(c1ccccc1-c1ocnc1C(=O)N1CCOCC1)N1CCCCC1`, 652 s.
With `CCc1ccc(N2CC(c3noc(-c4ccccc4Cl)n3)CC2=O)cc1` (stereo not given), the RP-LC retention time amounted to 1050 s.
The same measure for `COc1ccc(C(C)NC(=O)C2=C3CCCN3c3ccc(F)cc3S2(=O)=O)cc1OC` (stereo not given): 821 s.
The same measure for `COc1ccc(OC)c(NS(=O)(=O)c2c(C)sc(C)c2-c2cc(C(F)(F)F)on2)c1`: 1150 s; for `CCCc1cc(C(=O)N2CCCC2c2ccc(OC)cc2)no1` (stereo not given): 1120 s; for `NC(=O)C1CCN(c2ncnc3c2c(-c2ccccc2)cn3-c2cccc(Cl)c2)CC1`: 790 s.
The same measure for `Cc1nc2ncnn2c(C)c1CCC(=O)N1CCC(Cc2ccccc2)CC1`: 815 s; for `Cc1nn(C)c(=O)c2cc(S(=O)(=O)NCc3ccco3)cn12`: 718 s; for `CCC(C)NC(=O)C1CCCN(c2cnc3nccnc3c2)C1` (stereo not given): 608 s.
In the case of `Cc1csc(-c2ccc(N3CCN(C(=O)Cc4ccc(Cl)cc4)CC3)nc2)n1`, the RP-LC retention time was found to be 902 s.
With `COC(=O)c1c(NCCc2c[nH]c3ccccc23)c2cc(Cl)ccc2[nH]c1=O`, the RP-LC retention time came to 809 s.
The same measure for `O=C(c1noc2ccc(S(=O)(=O)N3CCN(c4ccccn4)CC3)cc12)N1CCCC1`: 677 s; for `COc1cc(OC)c(NC(=O)Cn2ccc3ccc(-c4nnc(C)o4)cc32)cc1Cl`: 859 s; for `COc1cccc(-c2noc(Cn3c(=O)n(C(C)C)c(=O)c4ccccc43)n2)c1`: 1110 s.
Under `Cc1ccc(C)c(NC(=O)c2cc(C)n3nc(C)cc3n2)c1` stands 1090 s.
Under `CCOC(=O)Nc1ccc2c(c1)CN(C(C)=O)CC2` stands 628 s.
For `O=C(NCc1ccc(C(F)(F)F)cc1)c1cn2ccccc2n1`, the RP-LC retention time is 746 s.
The molecule `CCN1C(=O)COc2ccc(-c3noc(-c4cccc(C)c4)n3)cc21` displayed an RP-LC retention time of 1210 s.
Under `Fc1ccc(-c2ccc(CNCC3CCNCC3)o2)cc1Cl` stands 582 s.
The molecule `CCOc1ccc(C(=O)N2CCN(S(=O)(=O)c3cc4c5c(c3)CCC(=O)N5CCC4)CC2)cc1` registered an RP-LC retention time of 815 s.
Take `CN1CCCc2cc(C(=O)NC3CCCCC3)sc21`: the RP-LC retention time came out at 934 s.
Under `O=C(NC1CCN(Cc2ccccc2)CC1)C1CCCN(c2ncnc3c2nc2n3CCCCC2)C1` (stereo not given) stands 1050 s; under `O=C(NCC(=O)N1CCc2ccccc21)Nc1ccccc1C(F)(F)F`, 890 s.
The same measure for `CC(C)(C)c1noc(-c2ccc(-n3cnc(C(=O)NCc4ccccc4F)c3)nc2)n1`: 1050 s; for `CC(O)(c1ccccc1)C(c1ccccc1)C1CCCCN1` (stereo not given): 747 s.
As to `CCCN(C)c1nccn2c(=O)n(CC(=O)Nc3cccc(C)c3)nc12`, the RP-LC retention time was 687 s.
As to `Cc1cc(-c2ccc(NC(=O)c3cccs3)c(C)c2)ccc1NC(=O)c1ccsc1`, the RP-LC retention time came to 878 s.
Under `COc1ccccc1OCC1c2ccsc2CCN1C(=O)CN(C(=O)NC(C)C)C(C)(C)C` (stereo not given) stands 595 s; under `COc1ccc(C)cc1NC(=O)N1CCCC(Cn2c(C3CC3)nc3cccnc32)C1` (stereo not given), 722 s.
The same measure for `Cc1ccc2nc(C)cc(C(=O)NCC(C)C)c2c1`: 631 s.
In turn, `O=C(c1ccco1)N1CCC(OC2CCN(Cc3ccccc3)CC2)CC1` yielded an RP-LC retention time of 595 s.
`Cc1cc(-c2ccc(S(=O)(=O)N3CCC(C(=O)NCc4ccccc4)CC3)o2)n[nH]1` gave an RP-LC retention time of 764 s.
Under `CCC(C)(C)NC(=O)C1CCN(S(=O)(=O)c2c(C)[nH]c(C)c2C(=O)N2CCCCC2)CC1` stands 746 s; under `CC(=O)Nc1ccc(NC(=O)CSc2ccc(N3CCCC(C(=O)NC4CC4)C3)nn2)cc1` (stereo not given), 584 s; under `COCCNc1nc(-c2ccc(C(C)(C)C)cc2)nc2ccccc12`, 790 s.
In the case of `CCN(CC)S(=O)(=O)c1ccc2c(c1)N(CC(=O)N1CCCC1)C(=O)C1CCCCN21` (stereo not given), the RP-LC retention time amounted to 835 s.
The same measure for `Fc1ccc(-c2csc(Nc3ccccn3)n2)cc1`: 896 s; for `CC(C)c1ccc(N2C(=O)CC(N3CCC(C(N)=O)CC3)C2=O)cc1` (stereo not given): 638 s; for `Cn1c(COc2ccc(Cl)cc2)nc2ccccc21`: 647 s.
The same measure for `CCOC(=O)c1c(S(=O)(=O)NCc2ccccc2F)n[nH]c1C`: 728 s; for `COC(=O)c1c(C)[nH]c(C(=O)N2CCC(CC(=O)N3CCN(c4cccc(C)c4)C(C)C3)CC2)c1C` (stereo not given): 754 s; for `COCc1cc(=O)n(Cc2ccccc2)c(N2CCCC2)n1`: 777 s.
Under `Cc1ccc(S(=O)(=O)N2CCC(n3cnnc3C)CC2)cc1C` stands 704 s; under `CC1CCN(c2ccc(-c3noc(CN4C(=O)COc5ccccc54)n3)cc2)CC1`, 1260 s.
`CNC(=O)c1cc(C)nc2c(C)cc(C)cc12` showed an RP-LC retention time of 568 s.
Under `CCOCCCn1c(SCc2nc(-c3ccc(F)cc3)no2)nc2ccccc2c1=O` stands 1150 s; under `COc1ccc(CN(Cc2ccccc2)Cc2cc(=O)n3ccc(C)cc3n2)cc1OC`, 662 s; under `CCc1nnc(-c2cc(S(=O)(=O)NCCc3ccc(S(N)(=O)=O)cc3)cn2C)o1`, 676 s.
Under `CCCNc1cc(N2CCC(CCC(=O)NCc3cccc(C)c3)CC2)ncn1` stands 716 s; under `CC(C)CC(=O)NCC12CCCC=C1N(C)C(=O)CC2` (stereo not given), 726 s.
As for `CC(C)N1C(=O)C(C)(C(=O)Nc2ccc(Cl)cc2)Oc2cccnc21` (stereo not given), the RP-LC retention time worked out at 903 s.
Take `Cc1ccc(CN2CCCn3nc(C(=O)NCCN4CCCCC4)cc3C2=O)cc1`: the RP-LC retention time is 631 s.
`CCOc1ccc(-n2c(-c3ccc(Cl)cc3)cn3c4c(=O)n(C)c(=O)n(C)c4nc23)cc1`: the RP-LC retention time amounted to 1050 s.
Under `Cc1ccc(-c2nc3ccc(Br)cn3c2Nc2ccccc2C)cc1` stands 892 s.
The same measure for `Cn1cc(-c2ccccc2)c2c1c(=O)n(C)c1nn(Cc3nc(-c4ccccc4)no3)c(=O)n21`: 1040 s.
For the molecule `Cc1ccccc1NC(=O)N1CCC(c2nc(C(=O)N3CCCC3)c(C)o2)CC1`, the RP-LC retention time came out at 732 s.
With `CC(C)n1cnnc1CC1CCN(C(=O)C2CCC2)CC1`, the RP-LC retention time was 611 s.

The values above are taken from the METLIN SMRT retention time set (Domingo-Almenara et al. 2019).
